According to patent US12286452B2, “Amphiphilic aminoglycoside connexin hemichannel inhibitors” (Texas Tech University System, priority 2018, dated 2025):
≈ marks a conversion by molar mass, not a printed value. Read-outs that look alike come from different tables or passages of the source.

Legend:
Assay type in all cases: cell-based
[1] = tested on: Staphylococcus aureus (ATCC25923); assay: Antibacterial assay (MIC); details: read-out: MIC against S. aureus
Description: Antibacterial assay: The minimum inhibitory concentration (MIC) of the newly synthesized compounds was tested against E. coli (ATCC 25922) and Staphylococcus aureus (ATCC25923). The concentration of bacteria grown in Lysogeny Broth (LB) was adjusted to an absorbance at 600 nm (OD600) of 0.08-0.1 using LB. A series of 2-fold dilutions was made for each compound in 96-well plates (USA Scientific CC7682-7596) starting from 256 μg/mL, and then, 50 μL of the diluted bacteria suspension was transferred to the wells. Bacteria were incubated for 18-24 h at 35° C. before measuring OD600 to assess growth. Experiments for each compound were done at least in duplicates.

Cx43 HCs = target: T1, Cx43 HCs (Homo sapiens, UniProt P17302); assay: Cx43-dependent growth complementation assay in E. coli LB2003
T1 construct: expressed in transfected cells

human Cx26 HCs = target: T2, human Cx26 HCs (Homo sapiens, UniProt P29033); assay: Cx26-dependent growth complementation assay in E. coli LB2003; details: for IC50: first Table 2, read-out: IC50, inhibition of Cx26 by synthetic AGs
T2 construct: expressed in transfected cells; host or cells: E. coli LB2003 (carrying pREP4), transformed with pQE-Cx26, IPTG-induced
Description: These derivatives were prepared by sequential benzylation and methylation followed by reduction of azido groups or hydrogenolysis of the Bn. […] Connexin HC inhibition was conducted using a bacteria-based assay of HC function^39. In this assay, Cx26 HCs are expressed in E. coli LB2003 cells, which lack three major K^+ uptake systems (Kdp, Kup and Trk), and as a result they cannot grow in low-[K^+] media^39-41. However, growth of this E. coli strain in low-[K^+] medium can be rescued by expression of K^+-permeable channels such as connexin HCs^39, 42-43. Under the conditions of the assay (LB2003 cells expressing HCs and grown in low-K^+ medium), inhibition of the HCs reduces or abolishes growth^39, 42-43. This is a simple assay where bacterial growth in multi-well plates can be followed by measuring the absorbance at 600 nm (OD600)^29.
LB2003 cells generously provided by Dr. E. P. Bakker (Osnabruk University, Osnabruk, Germany) were transformed with the plasmid pQE-Cx26 (human Cx26 into pQE60) and pREP4. […] LB2003 cells cannot grow in low-[K^+] media because of insufficient K^+ uptake for growth due to the knockout of three key K^+ transporters (Atrk, Akup, Akdp strain)^2-4. Details and validation of the growth complementation assay have been published recently^2. In brief, competent LB2003 containing the pREP4 plasmid were transformed with pQE-Cx26. These cells were grown overnight in Luria-Bertani medium (BD, Franklin Lakes, NJ, USA) supplemented with 100 mM KCl (to allow growth) and 0.4 mg/mL ampicillin, and then washed four times with NLM (see below), to remove residual K^+ from the Luria-Bertani medium. The washed cells were resuspended in complementation growth medium to an OD600 of 0.2. NLM contained 46 mM Na2HPO4, 23 mM NaH2PO4, 8 mM (NH4)2SO4, 0.4 mM MgSO4, 0.012 mM FeSO4, 1 mM sodium citrate, 44 mM glucose and 0.006 mM thiamine hydrochloride, pH 7.0. KLM had the same composition that NLM except for the equimolar replacement of Na^+ with K^+. For growth complementation we used NLM+4 mM KCl, and Cx26 expression was induced with 0.5 mM IPTG at the time of dilution to OD600=0.2. For the assay, the cells were seeded in 96-well plates and were incubated at 30° C., with shaking at 500 rpm. OD600 was measured after 18-h incubation in a plate reader. The initial OD600=0.2 was subtracted for growth calculations. Data are presented as means±SEM. Statistically significant differences were calculated by the Student t-test for unpaired data. Data were obtained from at least 3 independent experiments, with 3 repeats per experiment.

[2] = K46 members, the 20th table, read-out: IC50 (μM) against Cx43

T1 sequence (P17302 whole entry): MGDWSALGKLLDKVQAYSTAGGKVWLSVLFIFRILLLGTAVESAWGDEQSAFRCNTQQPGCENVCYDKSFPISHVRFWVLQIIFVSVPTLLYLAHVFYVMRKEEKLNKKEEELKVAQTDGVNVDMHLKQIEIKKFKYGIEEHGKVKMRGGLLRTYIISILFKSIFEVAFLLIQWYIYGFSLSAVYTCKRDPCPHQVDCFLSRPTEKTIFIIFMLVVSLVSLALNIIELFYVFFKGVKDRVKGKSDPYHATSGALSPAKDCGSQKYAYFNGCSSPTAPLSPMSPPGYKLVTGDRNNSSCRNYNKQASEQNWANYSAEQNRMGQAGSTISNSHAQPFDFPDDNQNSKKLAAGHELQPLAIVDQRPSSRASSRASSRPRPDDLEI

| SMILES | MIC [1] [mg/mL] | IC50 (Cx43 HCs; [2]) [µM] | Cx43 Imax (Cx43 HCs; the 13th table) [%] | IC50 (Cx43 HCs; the 13th table, read-out: Cx43 IC50) [µM] | IC50 (human Cx26 HCs) [µM] | Cx26 Imax (human Cx26 HCs; the 13th table) [%] | Cx43 Imax (maximal inhibition) (Cx43 HCs; the 12th table, Hill fit) [%] | IC50 (Cx43 HCs; the 12th table, Hill fit, mean ± SEM, some n = 1, read-out: Cx43 IC50) [µM] |
| --- | --- | --- | --- | --- | --- | --- | --- | --- |
| NCC1OC(OC2C(N)CC(N)C(OC3OC(COCc4cccc(-c5ccccc5)c4)C(OCc4cccc(-c5ccccc5)c4)C(N)C3O)C2O)C(O)C(O)C1O (centres unmarked) [Compound 16, 4″,6″-Di-O-(3-phenylbenzyl)-kanamycin] | 16 (≈ 19.6 mM) | 5.5 ± 2 | 121 ± 25 | 5.5 ± 2 | 6.2 ± 0.7 | 102 ± 2 |  |  |
| NCC1OC(OC2C(N)CC(N)C(OC3OC(COCc4cccc5ccccc45)C(OCc4cccc5ccccc45)C(N)C3O)C2O)C(O)C(O)C1O (centres unmarked) [Compound 15, 4″,6″-Di-O-(1-naphthalenmethyl) kanamycin] | 64 (≈ 83.7 mM) | 15 |  |  | 6.6 ± 0.5 |  | 122 | 15 |
